In patent US20230310428A1, “EGFR INHIBITOR AND PREPARATION METHOD AND USE THEREOF” (HONGYUN BIOTECH CO., LTD., priority 2020, published 2023):

Assays:
Assay in all cases: Growth inhibitory activity of compounds on BaF3 cell lines stably transfected with kinase (MTS, 48 h)
Type in all cases: cell-based
[1] = biological target: T1, various mutants of kinase EGFR (BaF3 cell lines stably transfected with kinase) (Homo sapiens, UniProt P00533); settings: BaF3 cells stably transfected with EGFR Δ19Del, read-out: IC50, growth inhibition, Δ19Del
T1 construct: other: BaF3 cells stably transfected with EGFR Δ19Del; MTS, 48 h; other: BaF3 cell line stably transfected with EGFR Δ19Del
T1 sequence (P00533 with tags, fused parts or gaps DEL746-750): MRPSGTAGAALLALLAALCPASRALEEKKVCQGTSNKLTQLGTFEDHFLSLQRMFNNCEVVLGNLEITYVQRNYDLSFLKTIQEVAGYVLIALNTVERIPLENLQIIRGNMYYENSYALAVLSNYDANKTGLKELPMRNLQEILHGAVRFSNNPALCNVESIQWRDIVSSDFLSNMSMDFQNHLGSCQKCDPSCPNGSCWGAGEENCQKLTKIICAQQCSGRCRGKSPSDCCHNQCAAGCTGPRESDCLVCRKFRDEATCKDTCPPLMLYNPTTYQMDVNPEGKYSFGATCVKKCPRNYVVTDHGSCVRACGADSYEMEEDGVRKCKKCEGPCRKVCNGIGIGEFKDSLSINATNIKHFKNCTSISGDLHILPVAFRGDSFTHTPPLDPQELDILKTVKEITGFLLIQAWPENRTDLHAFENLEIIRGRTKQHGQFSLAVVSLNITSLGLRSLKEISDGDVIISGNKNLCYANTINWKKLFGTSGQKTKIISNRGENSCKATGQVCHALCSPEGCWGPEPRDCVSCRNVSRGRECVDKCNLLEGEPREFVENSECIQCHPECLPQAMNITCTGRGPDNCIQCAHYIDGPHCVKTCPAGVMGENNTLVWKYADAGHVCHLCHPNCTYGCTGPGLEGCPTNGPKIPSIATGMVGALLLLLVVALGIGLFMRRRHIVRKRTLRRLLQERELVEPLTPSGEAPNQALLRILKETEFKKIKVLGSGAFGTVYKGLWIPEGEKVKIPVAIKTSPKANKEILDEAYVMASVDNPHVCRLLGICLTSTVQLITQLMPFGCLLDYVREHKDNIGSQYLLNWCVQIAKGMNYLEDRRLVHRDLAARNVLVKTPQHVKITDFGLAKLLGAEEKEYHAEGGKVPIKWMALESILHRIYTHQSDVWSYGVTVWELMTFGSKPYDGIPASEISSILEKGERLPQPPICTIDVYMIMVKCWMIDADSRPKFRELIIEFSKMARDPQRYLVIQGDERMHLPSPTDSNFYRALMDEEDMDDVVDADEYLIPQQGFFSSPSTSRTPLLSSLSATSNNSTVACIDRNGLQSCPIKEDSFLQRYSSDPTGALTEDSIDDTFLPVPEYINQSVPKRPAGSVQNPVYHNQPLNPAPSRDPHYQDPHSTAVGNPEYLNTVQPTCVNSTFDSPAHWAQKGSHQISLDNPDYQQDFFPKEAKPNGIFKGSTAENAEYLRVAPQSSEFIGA
Experimental: (§1) The activity of compounds against various mutants of kinase EGFR was evaluated by their effect of inhibiting growth of BaF3 cell lines stably transfected with kinase. The specific test method was given as follows:
(§2) 1) Culture medium: DMEM (Dulbecco’s modified eagle medium) or RPMI 1640 (containing 10% fetal bovine serum, 100 µg/mL ampicillin, 100 µg/mL streptomycin).
(§3) 2) Reagent: MTS reaction solution (containing 2 mg/mL of MTS [3-(4,5-dimethylthiazol-2-yl)-5-(3-carboxymethoxyphenyl)-2-(4-sulfophenyl)-2H-tetrazoliu m, inner Salt]; 100 µg/mL of PES ([…])).
(§4) 3) Compound test: cells were incubated into a 96-well culture plate, the volume of cytosol was 90 µL, and then 10 µL of the compound at each gradient concentration was added. That is, the highest concentration was 10 µM, which was diluted stepwise by ⅓, and 8 concentration points were set in total; 0.1% DMSO (dimethyl sulfoxide) was contained in the system. The cell plate with uniformly mixed compound was cultured in a cell culture incubator (37° C.; 5% CO2) for 48 h, then 20 µL of MTS reaction solution was added, uniformly mixed and incubated in the cell culture incubator (37° C.; 5% CO2) for 1-4 h. OD values at 490 nm were measured by a microplate reader (VARIOSKAN FLASH, Thermo). Two parallels were set in each group of experiments, with 0.1% (a final concentration) DMSO as a negative control, and a culture medium without cells and compounds as a blank control. The cell growth inhibition rate was calculated by the following formula: […]
(§5) 4) IC50 calculation: The semi-inhibitory concentration of the compounds acting on cells was calculated using GradPad Prism 5 software according to the measured cell growth inhibition rate.

[2] = biological target: T2, various mutants of kinase EGFR (BaF3 cell lines stably transfected with kinase) (Homo sapiens, UniProt P00533, C797S/L858R/T790M); settings: BaF3 cells stably transfected with EGFR L858R/T790M/C797S, read-out: IC50, growth inhibition, L858R/T790M/C797S
T2 construct: expressed in transfected cells; host or cells: BaF3
T2 sequence (P00533 25-1210 T790M/C797S/L858R): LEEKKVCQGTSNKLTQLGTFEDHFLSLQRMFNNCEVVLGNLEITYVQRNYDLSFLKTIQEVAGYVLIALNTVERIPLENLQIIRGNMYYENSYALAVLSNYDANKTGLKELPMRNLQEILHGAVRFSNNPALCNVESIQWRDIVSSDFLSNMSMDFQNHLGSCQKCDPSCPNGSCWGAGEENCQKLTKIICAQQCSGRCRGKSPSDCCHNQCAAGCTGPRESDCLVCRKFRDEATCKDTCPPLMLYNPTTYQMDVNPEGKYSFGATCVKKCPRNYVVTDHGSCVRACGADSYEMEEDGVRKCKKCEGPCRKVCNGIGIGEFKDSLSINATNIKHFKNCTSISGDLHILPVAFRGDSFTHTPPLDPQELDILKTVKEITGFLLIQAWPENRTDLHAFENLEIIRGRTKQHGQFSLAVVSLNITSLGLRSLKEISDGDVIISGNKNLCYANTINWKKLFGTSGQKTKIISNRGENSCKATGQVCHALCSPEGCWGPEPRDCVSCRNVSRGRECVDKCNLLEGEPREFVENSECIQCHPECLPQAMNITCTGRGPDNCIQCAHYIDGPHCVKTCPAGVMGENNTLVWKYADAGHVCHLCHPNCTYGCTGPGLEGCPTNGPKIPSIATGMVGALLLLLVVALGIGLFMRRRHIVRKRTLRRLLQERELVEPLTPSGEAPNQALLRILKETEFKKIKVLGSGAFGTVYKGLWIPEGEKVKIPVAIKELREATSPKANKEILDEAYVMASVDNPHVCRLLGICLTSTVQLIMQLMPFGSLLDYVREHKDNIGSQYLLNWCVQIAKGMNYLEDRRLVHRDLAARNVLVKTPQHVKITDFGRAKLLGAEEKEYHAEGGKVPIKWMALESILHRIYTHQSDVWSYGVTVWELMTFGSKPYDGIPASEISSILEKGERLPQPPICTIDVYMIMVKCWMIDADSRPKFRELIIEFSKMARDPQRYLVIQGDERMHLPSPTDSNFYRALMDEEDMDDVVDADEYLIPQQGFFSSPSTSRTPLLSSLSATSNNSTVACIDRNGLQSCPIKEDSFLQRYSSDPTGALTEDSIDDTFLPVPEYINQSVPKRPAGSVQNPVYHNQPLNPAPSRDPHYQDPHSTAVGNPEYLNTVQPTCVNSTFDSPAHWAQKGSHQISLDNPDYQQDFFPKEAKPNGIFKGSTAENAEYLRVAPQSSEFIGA
Experimental: as §1, §2, §3, §4, §5

[3] = biological target: T3, various mutants of kinase EGFR (BaF3 cell lines stably transfected with kinase) (Homo sapiens, UniProt P00533, L858R); settings: BaF3 cells stably transfected with EGFR L858R, read-out: IC50, growth inhibition, L858R
T3 construct: expressed in transfected cells; host or cells: BaF3
T3 sequence (P00533 25-1210 L858R): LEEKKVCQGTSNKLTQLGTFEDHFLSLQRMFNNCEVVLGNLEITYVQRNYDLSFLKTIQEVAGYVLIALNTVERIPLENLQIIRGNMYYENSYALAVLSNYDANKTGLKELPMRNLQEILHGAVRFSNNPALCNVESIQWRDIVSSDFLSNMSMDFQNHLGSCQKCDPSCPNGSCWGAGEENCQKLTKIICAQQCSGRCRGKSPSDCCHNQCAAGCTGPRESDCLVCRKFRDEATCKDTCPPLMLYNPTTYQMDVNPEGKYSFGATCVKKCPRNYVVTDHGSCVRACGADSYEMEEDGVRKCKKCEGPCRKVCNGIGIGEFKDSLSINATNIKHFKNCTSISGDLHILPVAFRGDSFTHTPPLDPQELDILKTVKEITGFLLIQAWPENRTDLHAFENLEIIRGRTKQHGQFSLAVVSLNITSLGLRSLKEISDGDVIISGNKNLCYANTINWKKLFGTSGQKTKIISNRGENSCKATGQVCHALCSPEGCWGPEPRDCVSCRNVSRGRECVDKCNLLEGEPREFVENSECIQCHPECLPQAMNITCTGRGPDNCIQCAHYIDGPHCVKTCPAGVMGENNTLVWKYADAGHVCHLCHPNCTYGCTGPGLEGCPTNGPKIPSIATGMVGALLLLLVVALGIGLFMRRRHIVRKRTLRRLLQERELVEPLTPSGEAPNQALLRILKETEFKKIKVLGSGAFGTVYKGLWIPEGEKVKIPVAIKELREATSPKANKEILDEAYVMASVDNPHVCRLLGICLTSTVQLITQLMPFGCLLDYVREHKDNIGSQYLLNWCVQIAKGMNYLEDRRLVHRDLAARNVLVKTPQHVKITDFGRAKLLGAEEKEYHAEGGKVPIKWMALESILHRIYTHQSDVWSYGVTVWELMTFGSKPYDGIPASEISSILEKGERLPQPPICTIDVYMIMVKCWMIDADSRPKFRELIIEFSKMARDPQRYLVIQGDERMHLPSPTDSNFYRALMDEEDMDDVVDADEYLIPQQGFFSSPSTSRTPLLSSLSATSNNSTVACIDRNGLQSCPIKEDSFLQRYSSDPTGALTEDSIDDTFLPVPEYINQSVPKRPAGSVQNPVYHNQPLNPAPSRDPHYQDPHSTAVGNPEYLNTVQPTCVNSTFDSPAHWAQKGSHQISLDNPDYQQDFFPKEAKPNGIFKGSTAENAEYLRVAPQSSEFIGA
Experimental: as §1, §2, §3, §4, §5

[4] = biological target: T4, various mutants of kinase EGFR (BaF3 cell lines stably transfected with kinase) (Homo sapiens, UniProt P00533, L858R/T790M); settings: BaF3 cells stably transfected with EGFR L858R/T790M, read-out: IC50, growth inhibition, L858R/T790M
T4 construct: expressed in transfected cells; host or cells: BaF3
T4 sequence (P00533 25-1210 T790M/L858R): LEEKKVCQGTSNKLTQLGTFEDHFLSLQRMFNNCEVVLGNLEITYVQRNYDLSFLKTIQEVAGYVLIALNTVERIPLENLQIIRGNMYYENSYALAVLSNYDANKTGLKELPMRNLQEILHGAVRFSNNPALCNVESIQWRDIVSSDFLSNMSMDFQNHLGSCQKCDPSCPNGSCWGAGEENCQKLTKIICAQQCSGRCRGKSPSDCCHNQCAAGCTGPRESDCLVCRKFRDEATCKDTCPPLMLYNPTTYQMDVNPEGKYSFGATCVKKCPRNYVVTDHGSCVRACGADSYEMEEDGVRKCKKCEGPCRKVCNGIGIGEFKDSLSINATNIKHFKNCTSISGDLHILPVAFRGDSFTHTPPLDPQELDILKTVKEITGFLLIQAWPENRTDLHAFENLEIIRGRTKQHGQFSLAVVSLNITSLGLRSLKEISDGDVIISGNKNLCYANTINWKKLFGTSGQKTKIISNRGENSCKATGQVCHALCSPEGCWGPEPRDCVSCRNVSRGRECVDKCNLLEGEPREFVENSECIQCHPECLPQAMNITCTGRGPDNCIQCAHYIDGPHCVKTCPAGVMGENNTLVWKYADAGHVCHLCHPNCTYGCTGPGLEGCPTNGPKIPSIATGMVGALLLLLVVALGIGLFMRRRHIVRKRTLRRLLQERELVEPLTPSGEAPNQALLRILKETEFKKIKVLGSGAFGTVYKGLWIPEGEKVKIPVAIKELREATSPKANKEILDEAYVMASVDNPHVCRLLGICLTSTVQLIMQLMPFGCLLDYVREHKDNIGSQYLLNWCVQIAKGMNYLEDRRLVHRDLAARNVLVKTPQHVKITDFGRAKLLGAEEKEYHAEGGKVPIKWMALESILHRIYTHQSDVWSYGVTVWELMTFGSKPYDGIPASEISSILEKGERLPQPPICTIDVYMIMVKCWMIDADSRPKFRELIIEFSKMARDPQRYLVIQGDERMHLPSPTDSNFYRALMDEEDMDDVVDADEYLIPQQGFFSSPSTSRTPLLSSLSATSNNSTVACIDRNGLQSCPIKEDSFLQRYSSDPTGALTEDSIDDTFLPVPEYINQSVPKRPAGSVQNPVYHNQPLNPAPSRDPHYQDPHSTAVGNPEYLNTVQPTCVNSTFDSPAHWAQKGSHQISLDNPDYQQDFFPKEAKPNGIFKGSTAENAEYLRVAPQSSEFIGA
Experimental: as §1, §2, §3, §4, §5

[5] = biological target: T5, various mutants of kinase EGFR (BaF3 cell lines stably transfected with kinase) (Homo sapiens, UniProt P00533, T790M/C797S, form not given); settings: BaF3 cells stably transfected with EGFR Δ19Del/T790M/C797S, read-out: IC50, growth inhibition, Δ19Del/T790M/C797S
T5 construct: other: BaF3 cells stably transfected with EGFR Δ19Del/T790M/C797S; MTS, 48; other: BaF3 cell line stably transfected with EGFR Δ19Del/T790M/C7
Experimental: as §1, §2, §3, §4, §5

[6] = biological target: T6, various mutants of kinase EGFR (BaF3 cell lines stably transfected with kinase) (Homo sapiens, UniProt P00533, T790M, form not given); settings: BaF3 cells stably transfected with EGFR Δ19Del/T790M, read-out: IC50, growth inhibition, Δ19Del/T790M
T6 construct: other: BaF3 cells stably transfected with EGFR Δ19Del/T790M; MTS, 48 h; other: BaF3 cell line stably transfected with EGFR Δ19Del/T790M; MTS, 48
Experimental: as §1, §2, §3, §4, §5

Structure (SMILES)	IC50 [1] [µM]	IC50 [2] [µM]	IC50 [3] [µM]	IC50 [4] [µM]	IC50 [5] [µM]	IC50 [6] [µM]
CCc1cc(Nc2ncc(Br)c(Nc3ccc4nccnc4c3N(C)S(=O)(=O)C(C)C)n2)c(OC)cc1N1CCC(N2CCN(C)CC2)CC1 [Compound I-135]	0.05 to 0.5	≤ 0.05	0.05 to 0.5	≤ 0.05	≤ 0.05	≤ 0.05
CCc1cc(Nc2ncc(Br)c(Nc3ccc4nccnc4c3N(C)S(=O)(=O)C(C)C)n2)c(OC)cc1N1CCC(N(C)C)CC1 [Compound I-137]	0.05 to 0.5	≤ 0.05	≤ 0.05	≤ 0.05	≤ 0.05	≤ 0.05
CCc1cc(Nc2ncc(Br)c(Nc3ccc4nccnc4c3N(C)S(=O)(=O)C(C)C)n2)c(OC)cc1N1CCC(N(C)C)C1 (stereo not drawn) [Compound I-138]	0.05 to 0.5	0.05 to 0.5	0.05 to 0.5	≤ 0.05	≤ 0.05	0.05 to 0.5
CCc1cc(Nc2ncc(Cl)c(Nc3ccc4nccnc4c3N(C)S(=O)(=O)C(C)C)n2)c(OC)cc1N1CCC(N(C)C)CC1 [Compound I-142]	≤ 0.05	≤ 0.05	≤ 0.05	≤ 0.05	≤ 0.05	≤ 0.05
CCc1cc(Nc2ncc(Cl)c(Nc3ccc4nccnc4c3N(C)S(=O)(=O)C(C)C)n2)c(OC)cc1N1CCC(N(C)C)C1 (stereo not drawn) [Compound I-143]	0.05 to 0.5	0.05 to 0.5	0.05 to 0.5	0.05 to 0.5	≤ 0.05	≤ 0.05
COc1cc(N2CCC(N3CCN(C)CC3)CC2)c(C)cc1Nc1ncc(Br)c(Nc2ccc3nccnc3c2N(C2CC2)S(C)(=O)=O)n1 [Compound I-154]	≤ 0.05	≤ 0.05	≤ 0.05	≤ 0.05	≤ 0.05	≤ 0.05
CCc1cc(Nc2ncc(Cl)c(Nc3ccc4nccnc4c3N(C3CC3)S(C)(=O)=O)n2)c(OC(F)(F)F)cc1N1CCC(N2CCN(C)CC2)CC1 [Compound I-161]	0.05 to 0.5	0.05 to 0.5	0.05 to 0.5	0.05 to 0.5	0.05 to 0.5	0.05 to 0.5
CCc1cc(Nc2ncc(Cl)c(Nc3ccc4nccnc4c3N(C3CC3)S(C)(=O)=O)n2)c(OC)cc1N1CCC(N(C)C)CC1 [Compound I-162]	≤ 0.05	≤ 0.05	≤ 0.05	≤ 0.05	≤ 0.05	≤ 0.05
CCc1cc(Nc2ncc(Cl)c(Nc3ccc4nccnc4c3N(C3CC3)S(C)(=O)=O)n2)c(OC)cc1N1CCC(N(C)C)C1 (stereo not drawn) [Compound I-163]	≤ 0.05	≤ 0.05	≤ 0.05	≤ 0.05	≤ 0.05	≤ 0.05
COc1nc(N2CCC(N3CCN(C)CC3)CC2)ccc1Nc1ncc(Cl)c(Nc2ccc3nccnc3c2N(C)S(C)(=O)=O)n1 [Compound I-164]	0.5 to 2.5	0.05 to 0.5	0.05 to 0.5	0.05 to 0.5	0.05 to 0.5	0.5 to 2.5
CN1CCN(C2CCN(c3ccc(Nc4ncc(Cl)c(Nc5ccc6nccnc6c5N(C)S(C)(=O)=O)n4)c(OC(F)(F)F)c3)CC2)CC1 [Compound I-166]	0.05 to 0.5	0.05 to 0.5	0.05 to 0.5	0.05 to 0.5	≤ 0.05	0.05 to 0.5
COc1cc(N2CCC(N3CCN(C)CC3)CC2)c(CC2CC2)cc1Nc1ncc(Cl)c(Nc2ccc3nccnc3c2N(C)S(C)(=O)=O)n1 [Compound I-167]	0.05 to 0.5	≤ 0.05	≤ 0.05	≤ 0.05	≤ 0.05	≤ 0.05
COc1cc(N2CCC(N3CCN(C)CC3)CC2)c(Cc2ccccc2)cc1Nc1ncc(Cl)c(Nc2ccc3nccnc3c2N(C)S(C)(=O)=O)n1 [Compound I-168]	0.5 to 2.5	0.5 to 2.5	0.5 to 2.5	0.5 to 2.5	0.5 to 2.5	0.05 to 0.5
CCc1cc(Nc2ncc(Cl)c(Nc3ccc4nccnc4c3N(C)S(C)(=O)=O)n2)c(OC)cc1N1CCC(N(C)C)CC1 [Compound I-170]	≤ 0.05	≤ 0.05	≤ 0.05	≤ 0.05	≤ 0.05	≤ 0.05
COc1cc(N2CCN(C)CC2)c(C)cc1Nc1ncc(Cl)c(Nc2ccc3nccnc3c2N(C)S(C)(=O)=O)n1 [Compound I-171]	0.05 to 0.5	≤ 0.05	≤ 0.05	≤ 0.05	≤ 0.05	≤ 0.05
COc1cc(N2CCC(N(C)C)C2)c(C)cc1Nc1ncc(Cl)c(Nc2ccc3nccnc3c2N(C)S(C)(=O)=O)n1 (stereo not drawn) [Compound I-173]	≤ 0.05	≤ 0.05	≤ 0.05	≤ 0.05	≤ 0.05	≤ 0.05

Next, values leading:

IC50 [1] [µM]	IC50 [2] [µM]	IC50 [3] [µM]	IC50 [4] [µM]	IC50 [5] [µM]	IC50 [6] [µM]	Structure (SMILES)
0.05 to 0.5	≤ 0.05	≤ 0.05	≤ 0.05	≤ 0.05	≤ 0.05	CCc1cc(Nc2ncc(Br)c(Nc3ccc4nccnc4c3N(C3CC3)S(C)(=O)=O)n2)c(OC)cc1N1CCC(N2CCN(C)CC2)CC1 [Compound I-155]
0.05 to 0.5	0.05 to 0.5	0.05 to 0.5	0.05 to 0.5	≤ 0.05	≤ 0.05	CCc1cc(Nc2ncc(Br)c(Nc3ccc4nccnc4c3N(C3CC3)S(C)(=O)=O)n2)c(OC(F)(F)F)cc1N1CCC(N2CCN(C)CC2)CC1 [Compound I-156]
≤ 0.05	≤ 0.05	≤ 0.05	≤ 0.05	≤ 0.05	≤ 0.05	CCc1cc(Nc2ncc(Br)c(Nc3ccc4nccnc4c3N(C3CC3)S(C)(=O)=O)n2)c(OC)cc1N1CCC(N(C)C)CC1 [Compound I-157]
0.05 to 0.5	≤ 0.05	0.05 to 0.5	≤ 0.05	≤ 0.05	≤ 0.05	CCc1cc(Nc2ncc(Br)c(Nc3ccc4nccnc4c3N(C3CC3)S(C)(=O)=O)n2)c(OC)cc1N1CCC(N(C)C)C1 (stereo not drawn) [Compound I-158]
≤ 0.05	≤ 0.05	≤ 0.05	≤ 0.05	≤ 0.05	≤ 0.05	COc1cc(N2CCC(N3CCN(C)CC3)CC2)c(C)cc1Nc1ncc(Cl)c(Nc2ccc3nccnc3c2N(C2CC2)S(C)(=O)=O)n1 [Compound I-159]
≤ 0.05	≤ 0.05	0.05 to 0.5	≤ 0.05	≤ 0.05	≤ 0.05	CCc1cc(Nc2ncc(Cl)c(Nc3ccc4nccnc4c3N(C3CC3)S(C)(=O)=O)n2)c(OC)cc1N1CCC(N2CCN(C)CC2)CC1 [Compound I-160]
≤ 0.05	≤ 0.05	≤ 0.05	≤ 0.05	≤ 0.05	≤ 0.05	COc1cc(N2CCC(N(C)C)CC2)c(C)cc1Nc1ncc(Cl)c(Nc2ccc3nccnc3c2N(C)S(C)(=O)=O)n1 [Compound I-169]
≤ 0.05	≤ 0.05	≤ 0.05	≤ 0.05	≤ 0.05	≤ 0.05	CCc1cc(Nc2ncc(Cl)c(Nc3ccc4nccnc4c3N(C)S(C)(=O)=O)n2)c(OC)cc1N1CCN(C)CC1 [Compound I-172]
≤ 0.05	≤ 0.05	≤ 0.05	≤ 0.05	≤ 0.05	≤ 0.05	CCc1cc(Nc2ncc(Cl)c(Nc3ccc4nccnc4c3N(C)S(C)(=O)=O)n2)c(OC)cc1N1CCC(N(C)C)C1 (stereo not drawn) [Compound I-174]
